Laboratory results taken from PubChem BioAssay (NCI).
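Values below derive from 48-hour exposures of cells grown in 96-well plates, with endpoints linearly interpolated between the two concentrations bracketing the appropriate inhibition level. TGI denotes the concentration required for complete inhibition of growth.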

Experiments:
Assay in all cases: NCI anticancer screen, dose series, 48 h
RXF 393 renal = test system: RXF 393 renal
HT29 colon = test system: HT29 colon
OVCAR-4 ovarian = test system: OVCAR-4 ovarian
SK-MEL-5 melanoma = test system: SK-MEL-5 melanoma
OVCAR-8 ovarian = test system: OVCAR-8 ovarian
M14 melanoma = test system: M14 melanoma
UACC-62 melanoma = test system: UACC-62 melanoma
HCT-116 colon = test system: HCT-116 colon
HOP-62 NSCLC = test system: HOP-62 NSCLC
SR leukemia = test system: SR leukemia
786-0 renal = test system: 786-0 renal
SN12C renal = test system: SN12C renal
EKVX NSCLC = test system: EKVX NSCLC
SK-MEL-28 melanoma = test system: SK-MEL-28 melanoma
U251 CNS = test system: U251 CNS
MDA-N = test system: MDA-N
HL-60(TB) leukemia = test system: HL-60(TB) leukemia
RPMI-8226 leukemia = test system: RPMI-8226 leukemia
A549 NSCLC = test system: A549 NSCLC
OVCAR-5 ovarian = test system: OVCAR-5 ovarian
HOP-92 NSCLC = test system: HOP-92 NSCLC
NCI-H460 lung = test system: NCI-H460 lung
SK-MEL-2 melanoma = test system: SK-MEL-2 melanoma
K-562 leukemia = test system: K-562 leukemia
CAKI-1 renal = test system: CAKI-1 renal
NCI-H23 lung = test system: NCI-H23 lung
IGROV1 ovarian = test system: IGROV1 ovarian
SF-268 CNS = test system: SF-268 CNS
NCI/ADR-RES ovarian = test system: NCI/ADR-RES ovarian
MALME-3M melanoma = test system: MALME-3M melanoma
SF-295 CNS = test system: SF-295 CNS
SF-539 CNS = test system: SF-539 CNS
PC-3 prostate = test system: PC-3 prostate
OVCAR-3 ovarian = test system: OVCAR-3 ovarian
ACHN renal = test system: ACHN renal
SNB-19 CNS = test system: SNB-19 CNS
SNB-75 CNS = test system: SNB-75 CNS
SK-OV-3 ovarian = test system: SK-OV-3 ovarian
TK-10 renal = test system: TK-10 renal
UACC-257 melanoma = test system: UACC-257 melanoma
CCRF-CEM leukemia = test system: CCRF-CEM leukemia
COLO 205 colon = test system: COLO 205 colon
NCI-H522 lung = test system: NCI-H522 lung
HCC-2998 colon = test system: HCC-2998 colon
HCT-15 colon = test system: HCT-15 colon
MDA-MB-231 breast = test system: MDA-MB-231 breast
DU-145 prostate = test system: DU-145 prostate
HS 578T breast = test system: HS 578T breast
BT-549 breast = test system: BT-549 breast
T-47D breast = test system: T-47D breast
UO-31 renal = test system: UO-31 renal
MOLT-4 leukemia = test system: MOLT-4 leukemia
MCF7 breast = test system: MCF7 breast
MDA-MB-435 = test system: MDA-MB-435
SW-620 colon = test system: SW-620 colon
KM12 colon = test system: KM12 colon
A498 renal = test system: A498 renal
LOX IMVI melanoma = test system: LOX IMVI melanoma
NCI-H226 lung = test system: NCI-H226 lung

Measured: TGI

CC(=NCC(=O)O)c1ccccc1
> 100 µM: all assays above
